Active and inactive are the calls of the source. No cut-off for these calls is given here.
Experiments:
A-375 [1] = assay: Upregulation of p27 accumulation in human A-375 cells at 6 to 8 uM measured after 12 to 24 hrs by western blot assay; type: functional, cell-based; details: dose 6-8 µM, time 12-24 hrs
A-375 [2] = assay: Induction of cell cycle arrest in human A-375 cells assessed as accumulation at G0/G1 phase at 6 uM incubated for 24 hrs by PI staining based flow cytometry analysis (reference value: 69.68 %); type: functional
A-375 [3] = assay: Induction of apoptosis in human A-375 cells assessed as […] of Bax/Mcl-1 protein level at 6 to 8 uM incubated for 24 hrs by Western blot analysis; type: functional, cell-based; details: dose 6-8 µM
A-375 [4] = assay: Induction of autophagy in human A-375 cells assessed as increase in phosphorylated ACC at 7 uM incubated for 6 to 24 hrs by Western blotting analysis; type: functional, cell-based; details: time 6-24 hrs
B16 [5] = assay: Induction of cell cycle arrest in mouse B16 cells assessed as accumulation at G2/M phase at 7 uM incubated for 24 hrs by PI staining based flow cytometry analysis (reference value: 4.70 %); type: functional
A-375 [6] = assay: Induction of cell cycle arrest in human A-375 cells assessed as accumulation at G2/M phase at 8 uM incubated for 24 hrs by PI staining based flow cytometry analysis (reference value: 1.48 %); type: functional
B16 [7] = assay: Induction of apoptosis in mouse B16 cells assessed as late apoptotic cells preincubated for 2 hrs with […] followed by compound addition and measured after 24 hrs by Annexin-V-FITC/PI-staining based flow cytometry (reference value: 5.7 %); type: functional
A-375 [8] = assay: Inhibition of autophagy in human A-375 cells harbouring mCherry-EGFP-LC3 assessed as increase in number of autophagosomes at 7 uM incubated for 8 to 24 hrs by laser scanning confocal microscopic analysis; type: functional, cell-based; details: time 8-24 hrs, TDE = time-dependent effect
B16 [9] = assay: Induction of apoptosis in mouse B16 cells assessed as late apoptotic cells preincubated for 2 hrs with 3-MA followed by compound addition and measured after 24 hrs by Annexin-V-FITC/PI-staining based flow cytometry (reference value: 5.7 %); type: functional
[10] = biological target: Signal transducer and activator of transcription 3 (Homo sapiens) (UniProt P40763); assay: Inhibition of STAT3 phosphorylation in human A-375 cells assessed as decrease in phosphorylated STAT3 level at 6 to 8 uM measured after 12 to 24 hrs by Western blot analysis; type: cell-based; details: dose 6-8 µM, time 12-24 hrs
A-375 [11] = assay: Cytotoxicity against human A-375 cells assessed as change in cell morphology with loss of […] contacts at 6 to 8 uM incubated for 24 hrs by […] phase contrast microscope analysis; type: functional; details: dose 6-8 µM
B16 [12] = assay: Induction of cell cycle arrest in mouse B16 cells assessed as accumulation at G2/M phase at 5 uM incubated for 24 hrs by PI staining based flow cytometry analysis (reference value: 4.70 %); type: functional
A-375 [13] = assay: Upregulation of p21 accumulation in human A-375 cells at 6 to 8 uM measured after 12 to 24 hrs by western blot assay; type: functional, cell-based; details: dose 6-8 µM, time 12-24 hrs
A-375 [14] = assay: Induction of apoptosis in human A-375 cells assessed as chromatin condensation at 6 to 8 uM incubated for 24 hrs by Hoechst 33258 staining based fluorescence microscopy; type: functional, cell-based; details: dose 6-8 µM
NCI-H1299 = assay: Cytotoxicity against human NCI-H1299 cells assessed as reduction in cell viability by MTT assay; type: functional, cell-based
A-375 [15] = assay: Inhibition of colony formation in human A-375 cells assessed as reduction in number of colonies at 6 to 8 uM incubated for 24 hrs followed by replacement with fresh medium and measured after 14 days by crystal violet staining based analysis; type: functional, cell-based; details: dose 6-8 µM
B16 [16] = assay: Induction of cell cycle arrest in mouse B16 cells assessed as accumulation at S phase at 7 uM incubated for 24 hrs by PI staining based flow cytometry analysis (reference value: 33.46 %); type: functional
A-375 [17] = assay: Cytotoxicity against human A-375 cells assessed as reduction in cell viability measured after 24 hrs by MTT assay; type: functional, cell-based; details: A-375, 24 h
A-375 [18] = assay: Induction of apoptosis in human A-375 cells assessed as late apoptotic cells at 6 uM after 24 hrs by Annexin-V-FITC/PI-staining based flow cytometry (reference value: 5.7 %); type: functional
B16 [19] = assay: Induction of apoptosis in mouse B16 cells assessed as early apoptotic cells at 6 uM measured after 24 hrs by Annexin-V-FITC/PI-staining based flow cytometry (reference value: 0.5 %); type: functional
A-375 [20] = assay: Induction of apoptosis in human A-375 cells assessed as early apoptotic cells at 6 uM after 24 hrs by Annexin-V-FITC/PI-staining based flow cytometry (reference value: 1.4 %); type: functional
A-375 [21] = assay: Upregulation of p53 accumulation in human A-375 cells at 6 to 8 uM measured after 12 to 24 hrs by western blot assay; type: functional, cell-based; details: dose 6-8 µM, time 12-24 hrs
A-375 [22] = assay: Induction of autophagy in human A-375 cells assessed as decrease in LC3-I /LC3-II ratio at 7 uM incubated for 6 to 24 hrs by […]; type: functional, cell-based; details: time 6-24 hrs
B16 [23] = assay: Induction of apoptosis in mouse B16 cells assessed as late apoptotic cells at 6 uM measured after 24 hrs by Annexin-V-FITC/PI-staining based flow cytometry (reference value: 4.4 %); type: functional
A-375 [24] = assay: Induction of cell cycle arrest in human A-375 cells assessed as accumulation at S phase at 6 uM incubated for 24 hrs by PI staining based flow cytometry analysis (reference value: 28.83 %); type: functional
A-375 [25] = assay: Induction of cell cycle arrest in human A-375 cells assessed as accumulation at G0/G1 phase incubated for 24 hrs in presence of AG490 by PI staining based flow cytometry analysis (reference value: 56.69 %); type: functional
B16 [26] = assay: Induction of cell cycle arrest in mouse B16 cells assessed as accumulation at G0/G1 phase incubated for 24 hrs by PI staining based flow cytometry analysis (reference value: 56.59 %); type: functional
B16 [27] = assay: Induction of apoptosis in mouse B16 cells assessed as nuclear membrane lysis at 5 to 7 uM incubated for 24 hrs by Hoechst 33258 staining based fluorescence microscopy; type: functional, cell-based; details: dose 5-7 µM
A-375 [28] = assay: Induction of autophagy in human A-375 cells assessed as increase in autophagosome with central pulp at 7 uM incubated for 6 to 24 hrs by transmission electron microscopy; type: functional, cell-based; details: time 6-24 hrs
A-375 [29] = assay: Induction of apoptosis in human A-375 cells assessed as early apoptotic cells at 7 uM after 24 hrs by Annexin-V-FITC/PI-staining based flow cytometry (reference value: 1.4 %); type: functional
B16 [30] = assay: Inhibition of colony formation in mouse B16 cells assessed as reduction in volume of colonies at 5 to 7 uM incubated for 24 hrs followed by replacement with fresh medium and measured after 14 days by crystal violet staining based analysis; type: functional, cell-based; details: dose 5-7 µM
A-375 [31] = assay: Induction of autophagy in human A-375 cells assessed as increase in LC3-II expression at 7 uM incubated for 6 to 24 hrs by […]; type: functional, cell-based; details: time 6-24 hrs
A-375 [32] = assay: Induction of cell cycle arrest in human A-375 cells assessed as accumulation at G0/G1 phase at 7 uM incubated for 24 hrs by PI staining based flow cytometry analysis (reference value: 69.68 %); type: functional
B16 [33] = assay: Inhibition of autophagy in mouse B16 cells harbouring mCherry-EGFP-LC3 assessed as increase in number of autophagosomes at 6 uM for 8 to 24 hrs by laser scanning confocal microscopic analysis; type: functional, cell-based; details: time 8-24 hrs

Chain of Signal transducer and activator of transcription 3 (Homo sapiens) (P40763 whole entry): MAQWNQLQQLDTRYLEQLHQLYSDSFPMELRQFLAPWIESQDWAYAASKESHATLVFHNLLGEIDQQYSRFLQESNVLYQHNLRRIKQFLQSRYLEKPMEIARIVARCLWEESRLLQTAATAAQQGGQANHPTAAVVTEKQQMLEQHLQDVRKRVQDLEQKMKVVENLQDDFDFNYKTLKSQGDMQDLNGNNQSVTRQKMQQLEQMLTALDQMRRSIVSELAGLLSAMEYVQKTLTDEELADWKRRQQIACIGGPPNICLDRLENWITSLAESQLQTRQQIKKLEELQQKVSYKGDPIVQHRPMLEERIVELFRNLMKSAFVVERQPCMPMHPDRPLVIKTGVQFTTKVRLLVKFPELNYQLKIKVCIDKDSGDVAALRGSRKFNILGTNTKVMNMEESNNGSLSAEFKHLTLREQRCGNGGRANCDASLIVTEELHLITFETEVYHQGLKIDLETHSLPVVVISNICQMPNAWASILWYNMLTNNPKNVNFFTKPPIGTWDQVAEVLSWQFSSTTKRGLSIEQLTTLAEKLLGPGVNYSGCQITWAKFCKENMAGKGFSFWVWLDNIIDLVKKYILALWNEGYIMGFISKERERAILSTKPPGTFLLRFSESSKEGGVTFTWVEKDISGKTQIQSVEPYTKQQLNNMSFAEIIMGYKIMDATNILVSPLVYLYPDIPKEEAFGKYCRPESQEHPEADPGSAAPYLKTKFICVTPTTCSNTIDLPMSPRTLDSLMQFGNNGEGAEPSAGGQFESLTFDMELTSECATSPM

`COc1ccc2cc1Oc1ccc(cc1)C[C@H]1c3cc(c(OC)cc3CCN1C)Oc1c(OC)c(OC)c(OC)c3c1[C@H](C2)N(C)CC3` [HERNANDEZINE] was tested, and the Activity (A-375 [1]) was “Active”, the Activity (A-375 [2]) was 76.28% and the Activity (A-375 [3]) was “Active”. For the same compound, the Activity (A-375 [4]) was “Active”, the Activity (B16 [5]) was 2.98% and the Activity (A-375 [6]) was 1.24%. The Activity (B16 [7]) was 16%, the inhibition (A-375 [8]) was “Tde” and the Activity (B16 [9]) was 14.5%. The inhibition [10] was “Active”, the Activity (A-375 [11]) was “Active” and the Activity (B16 [12]) was 4.58%. For the same compound, the Activity (A-375 [13]) was “Active”, the Activity (A-375 [14]) was “Active” and the IC50 (NCI-H1299) was 6.74 µM. The inhibition (A-375 [15]) was “Active”, the Activity (B16 [16]) was 20.64% and the IC50 (A-375 [17]) was 7.2 µM. The Activity (A-375 [18]) was 18.9%, the Activity (B16 [19]) was 12.9% and the Activity (A-375 [20]) was 4.1%. The Activity (A-375 [21]) was “Active”, the Activity (A-375 [22]) was “Active” and the Activity (B16 [23]) was 19.2%. It also gave an Activity (A-375 [24]) of 22.28%, an Activity (A-375 [25]) of 70.87% and an Activity (B16 [26]) of 78.59%. The Activity (B16 [27]) was “Active”, the Activity (A-375 [28]) was “Active” and the Activity (A-375 [29]) was 9.4%. For the same compound, the inhibition (B16 [30]) was “Active”, the Activity (A-375 [31]) was “Active” and the Activity (A-375 [32]) was 76.87%. The inhibition (B16 [33]) was “Active”.

Reference: ChEMBL document CHEMBL5120867, “Hernandezine Regulates Proliferation and Autophagy-Induced Apoptosis in Melanoma Cells” (J Nat Prod, 2022)
